This assay deals with T1, BCL6 (Homo sapiens, UniProt P41182).
T1 construct: endogenous in cells; host or cells: T47D breast cancer epithelial cells
The assay is described as follows: Immunofluorescence protocol for high content imaging of BCL6 (degradation) in T47D cells, 3 days compound treatment. As to conditions: T47D cells, 3 days compound treatment; for DC50: read-out: Mean DC50 (nM)* category; for Dmax: read-out: Mean Dmax (%)** category. The class given is cell-based. In outline:
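T47D cells in RPMI1640-10% FBS were treated with an 11-point 3-fold dilution series (final top 0.1 or 1 μM) for 3 days at 37° C. After PFA fixation and Triton permeabilization, cells were immunostained with rabbit anti-BCL6 (1:300, overnight 4° C), Alexa-488 secondary, CellMask-647 and Hoechst, then imaged at 10×, 4 fields/well.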

Structures are written as SMILES.

The term DC50 denotes the concentration giving 50% degradation. The Dmax is the greatest extent of degradation seen. Turning to `CNC(=O)COc1cc2cc(Nc3nc(N4CCCC4)ncc3Cl)ccc2n(CCOc2ccc3c(c2)C(=O)N(C2CCC(=O)NC2=O)C3=O)c1=O` (stereo not drawn) [Compound 32, 2-[(6-{[5-chloro-2-(pyrrolidin-1-yl)pyrimidin-4-yl]amino}-1-(2-{[2-(2,6-dioxopiperidin-3-yl)-1,3-dioxo-2,3-dihydro-1H-isoindol-5-yl]oxy}ethyl)-2-oxo-1,2-dihydroquinolin-3-yl)oxy]-N-methylacetamide], the DC50 fell in the range of 10 to 50 nM and the greatest degradation seen (Dmax) is 50 to 70%.

Regarding `CNC(=O)COc1cc2cc(Nc3nc(N4CC(C)OC(C)C4)ncc3Cl)ccc2n(CCOc2ccc3c(c2)C(=O)N(C2CCC(=O)NC2=O)C3=O)c1=O` (stereo not drawn) [Compound 33, 2-[(6-{[5-chloro-2-(2,6-dimethylmorpholin-4-yl)pyrimidin-4-yl]amino}-1-(2-{[2-(2,6-dioxopiperidin-3-yl)-1,3-dioxo-2,3-dihydro-1H-isoindol-5-yl]oxy}ethyl)-2-oxo-1,2-dihydroquinolin-3-yl)oxy]-N-methylacetamide], the DC50 lay in the range of 50 to 100 nM and the Dmax is below 50%.

For the compound `CNC(=O)COc1cc2cc(Nc3nc(N4CCC5(CC4)CC(C(C)(C)N4CCN(c6cccc7c6CN(C6CCC(=O)NC6=O)C7=O)CC4)C5)ncc3Cl)ccc2n(C(C)C)c1=O` (stereo not drawn) [Compound 34, 2-{[6-({5-chloro-2-[2-(2-{4-[2-(2,6-dioxopiperidin-3-yl)-1-oxo-2,3-dihydro-1H-isoindol-4-yl]piperazin-1-yl}propan-2-yl)-7-azaspiro[3.5]nonan-7-yl]pyrimidin-4-yl}amino)-2-oxo-1-(propan-2-yl)-1,2-dihydroquinolin-3-yl]oxy}-N-methylacetamide], the DC50 was below 10 nM and the greatest degradation seen (Dmax) lay within 50 to 70%.

Regarding `CNC(=O)COc1cc2cc(Nc3nc(N4CCN(CC5CCN(c6c(F)ccc7c6C(=O)N(C6CCC(=O)NC6=O)C7=O)CC5)CC4)ncc3Cl)ccc2n(C)c1=O` (stereo not drawn) [Compound 35, 2-{[6-({5-chloro-2-[4-({1-[2-(2,6-dioxopiperidin-3-yl)-5-fluoro-1,3-dioxo-2,3-dihydro-1H-isoindol-4-yl]piperidin-4-yl}methyl)piperazin-1-yl]pyrimidin-4-yl}amino)-1-methyl-2-oxo-1,2-dihydroquinolin-3-yl]oxy}-N-methylacetamide], the half-maximal degradation concentration (DC50) is below 10 nM and the maximal degradation (Dmax) lay in the range of 50 to 70%.

On to `CNC(=O)COc1cc2cc(Nc3nc(N4CCC5(CC4)CN(C(C)(C)C4CCN(c6cccc7c6CN(C6CCC(=O)NC6=O)C7=O)CC4)C5)ncc3Cl)ccc2n(C(C)C)c1=O` (stereo not drawn) [Compound 36, 2-{[6-({5-chloro-2-[2-(2-{1-[2-(2,6-dioxopiperidin-3-yl)-1-oxo-2,3-dihydro-1H-isoindol-4-yl]piperidin-4-yl}propan-2-yl)-2,7-diazaspiro [3.5]nonan-7-yl]pyrimidin-4-yl}amino)-2-oxo-1-(propan-2-yl)-1,2-dihydroquinolin-3-yl]oxy}-N-methylacetamide], for which the half-maximal degradation concentration (DC50) is below 10 nM and the Dmax was at least 70%.

With `CNC(=O)COc1cc2cc(Nc3nc(N4CCC(CN5CCC6(CC5)CN(c5ccc7c(c5)C(=O)N(C5CCC(=O)NC5=O)C7=O)C6)CC4)ncc3Cl)ccc2n(CCOC)c1=O` (stereo not drawn) [Compound 37, 2-{[6-({5-chloro-2-[4-({2-[2-(2,6-dioxopiperidin-3-yl)-1,3-dioxo-2,3-dihydro-1H-isoindol-5-yl]-2,7-diazaspiro[3.5]nonan-7-yl}methyl)piperidin-1-yl]pyrimidin-4-yl}amino)-1-(2-methoxyethyl)-2-oxo-1,2-dihydroquinolin-3-yl]oxy}-N-methylacetamide], the DC50 was below 10 nM and the maximal degradation (Dmax) fell in the range of 50 to 70%.

These data come from patent US11986532B2 (Arvinas Operations, Inc., priority 2021, dated 2024).
